Experimental findings from patent US8450374B2, “Pan-antagonists for the androgen receptor and androgen receptor mutants associated with anti-androgen withdrawal” (priority 2009, dated 2013) are described below.

SMILES strings stand for the structures. Positions count from the first letter of the chain named.

The test system of one data set is prostate tissues. The data set is described as follows: Prostate apoptosis by TUNEL after short-term IP treatment (PLM6, bicalutamide). The format is in vivo, Male C57BI/6 mice. The following applies: 25 mg/kg/day IP, mean ± SE. Here is the method:
FIG. 6. […] Single 20× magnification fields from each of four lobes of mouse prostate glands were counted in each mouse. […] Data are expressed as means±SE. Statistics were determined using two-tailed, paired t-tests assuming data from each lobe was independent.
(§1) Prostates were removed from 3 day and 5 day treatment groups, sectioned and stained by H&E and TUNEL.
PLM6-induced glandular apoptosis was 19.9±2.8 cells per 20× field on day 3 (P=0.0064) that reached 24.63±3 cells per 20× field on day 5 (P=2.59×10^−4) (FIG. 7). Prostates from treated and control mice were isolated, fixed sectioned and stained TUNEL (BrdU). Sections were then evaluated by visible light microscopy and counting.

The conditions of data set [1]: 25 mg/kg/day IP; PLM6 death at 5 days of treatment.
Description: as §1

Data set [2] has as its target T1, AR T877A (Homo sapiens, UniProt P10275, T878A).
T1 sequence (P10275 1-920 T878A): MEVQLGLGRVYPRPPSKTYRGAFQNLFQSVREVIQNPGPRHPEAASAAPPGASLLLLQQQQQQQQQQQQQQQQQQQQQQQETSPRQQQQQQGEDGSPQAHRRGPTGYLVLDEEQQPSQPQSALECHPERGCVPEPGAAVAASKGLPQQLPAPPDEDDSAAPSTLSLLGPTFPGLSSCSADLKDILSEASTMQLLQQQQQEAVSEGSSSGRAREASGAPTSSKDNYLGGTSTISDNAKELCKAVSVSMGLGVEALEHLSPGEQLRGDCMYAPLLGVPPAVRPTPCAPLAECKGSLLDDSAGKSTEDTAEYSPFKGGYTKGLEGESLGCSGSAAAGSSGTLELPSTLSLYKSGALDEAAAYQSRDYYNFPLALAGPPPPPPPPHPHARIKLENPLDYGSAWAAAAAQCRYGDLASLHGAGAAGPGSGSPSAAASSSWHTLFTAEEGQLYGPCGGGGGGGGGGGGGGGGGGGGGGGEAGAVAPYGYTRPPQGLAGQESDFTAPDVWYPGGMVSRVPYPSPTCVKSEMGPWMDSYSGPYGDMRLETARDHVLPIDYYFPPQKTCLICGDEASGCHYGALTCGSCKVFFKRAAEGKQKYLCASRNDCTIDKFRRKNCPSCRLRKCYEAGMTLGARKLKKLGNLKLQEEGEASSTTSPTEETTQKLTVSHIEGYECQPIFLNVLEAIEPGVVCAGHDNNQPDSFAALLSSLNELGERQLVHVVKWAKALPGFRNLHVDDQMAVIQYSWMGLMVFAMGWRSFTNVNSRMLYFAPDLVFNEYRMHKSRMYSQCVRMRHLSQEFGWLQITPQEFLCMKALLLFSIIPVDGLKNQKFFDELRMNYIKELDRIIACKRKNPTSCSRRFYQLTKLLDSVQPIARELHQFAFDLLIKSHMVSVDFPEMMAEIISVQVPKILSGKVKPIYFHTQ
Kind of data set: Transcription assay (ARE-luciferase reporter) in CV-1 cells, AR T877A. In kind it is cell-based. On the set-up: expressed in transfected cells; host or cells: CV-1. As for the experimental part: (§2) Twenty-four hours prior to transfection, CV-1 cells were seeded at a density of 45,000 cells per well in 24-well cell culture plates and grown in phenol red free Dulbecco's Modified Eagle Medium (DMEM) supplemented with 10% cosmic calf serum (COS). ARE-luciferase reporter and Renilla-Luc as the internal standard and a prokaryotic expression vector encoding the wild-type androgen receptor or mutant androgen receptor were transfected with Lipofectamine (Invitrogen) following manufacturer's protocol. Five hours after transfection, media was added containing the appropriate concentrations of ligands. The cells were allowed to incubate for 38 hours before harvesting by passive lysis buffer. Cell extracts were immediately assayed using the Dual Luciferase Assay (Promega) with a Perkin-Elmer Microbeta Luminometer. […] Dose-response data was analyzed by nonlinear regression analysis using GraphPad Prism.

Data set [3] addresses T2, AR wt (Homo sapiens, UniProt P10275).
T2 sequence (P10275 1-920): T1 sequence (P10275 1-920 T878A) with A878T
The data set is described as follows: Transcription assay (ARE-luciferase reporter) in CV-1 cells, wild-type AR. On the set-up: expressed in transfected cells; host or cells: CV-1. In kind it is cell-based. Here is the method:
as §2
For orientation: In a reporter assay the amount or activity of a reporter protein is the signal.

The target in the next data set is T3, AR W741C (Homo sapiens, UniProt P10275, W742C).
T3 sequence (P10275 1-920 W742C): T1 sequence (P10275 1-920 T878A) with W742C, A878T
Kind of data set: Competitive binding assay, [3H]DHT, transfected COS-7 cells, AR W741C. Also on record: expressed in transfected cells; host or cells: COS-7. The following applies: 75 nM [3H]-DHT, read-out: Binding affinity (Ki), AR W741C. Here is the method: (§3) Twenty-four hours prior to transfection, COS-7 cells were seeded at a density of 70,000 cells per well in 24-well cell culture plates and grown in phenol red free Dulbecco's Modified Eagle Medium (DMEM) supplement with 10% cosmic calf serum (CCS). The cells were transfected with a prokaryotic expression vector encoding the wild-type androgen receptor or mutant androgen receptor using Lipofectamine (Invitrogen) following manufacturer's protocol. […] Cells were washed with PBS and harvested in 2% SDS, 10% glycerol, and 10 mM Tris, pH 6.8, and radioactivity determined by scintillation counting.

The target of data set [4] is T1, AR T877A. Kind of data set: Competitive binding assay, [3H]DHT, transfected COS-7 cells, AR T877A. On the set-up: expressed in transfected cells; host or cells: COS-7. The following applies: 14 nM [3H]-DHT, read-out: Binding affinity (Ki), AR T877A. As for the experimental part:
as §3

Data set [5] has as its target T2, AR wt. Kind of data set: Competitive binding assay, [3H]DHT, transfected COS-7 cells, wild-type AR. Also on record: expressed in transfected cells; host or cells: COS-7. The conditions noted are these: 8 nM [3H]-DHT, read-out: Binding affinity (Ki), AR wt. Here is the method:
as §3

As for `CC(O)(CS(=O)(=O)c1ccc(F)cc1)C(=O)Nc1ccc(C#N)c(C(F)(F)F)c1` (stereo not shown) [Bicalutamide, bicalutamide], the “Glandular apoptosis, apoptotic cells” value came to 21.04±4.7 cells per 20× field in the data set with prostate tissues (day 3, TUNEL) and 50.83±8.2 cells per 20× field in the data set on prostate tissues (day 5, TUNEL). Further, in data set [1], the Deaths result is “two”.
On to `CN(C)CCCOc1ccccc1Cc1ccccc1S(=O)(=O)CC(C)(O)C(=O)Nc1ccc(C#N)c(C(F)(F)F)c1` (stereo not shown) [PAN12], for which the values for the concentration for half-maximal inhibition (IC50) against AR T877A [2] and on AR wt [3] were 4.1 ± 0.7 µM and 2.4 µM, respectively. In addition, the “Antagonist efficacy (RLU value at IC50), AR T877A” value at AR T877A [2] (in competition with 10 nM DHT) is on record as “(53% ± 5.6%)”. Moreover, the “Antagonist efficacy (RLU value at IC50), AR wt” value at AR wt [3] (in competition with 3 nM DHT, normalized to 10 nM DHT in hAR(wt)) is listed as “(59%)”. Besides, the Ki (commonly the equilibrium dissociation constant of an inhibitor or competing ligand from its target) at AR W741C amounted to 16 µM; on AR T877A [4] it was 2.6 µM; on AR wt [5], 5.8 µM.
